Source: the supplement of paper PMC7840683
± gives the standard deviation of the averaged measurements.

System: HepaRG
Assay: LDH release cytotoxicity, % of total lysis control; higher = more cytotoxic
Details: 48 h
Summary of the method: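 Percent cytotoxicity was scaled between on-plate vehicle and total lysis controls, then averaged over duplicate wells. The cells were single-lot HepaRG on collagen I-coated 96-well plates, exposed for 48 h to eight-point half-log test chemical series topping at 100 µM in serum-free induction medium with 0.5% DMSO. Total lysis wells got 0.1% Triton X, and LDH in 50 µL spent medium was read as resorufin fluorescence (CytoTox-ONE, Tecan Safire).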

`CCCCCCCCCCCCCCCC` [Hexadecane] was tested, and the LDH release cytotoxicity (0.03162 µM) was -0.113 ± 0.57%, the LDH release cytotoxicity (0.1 µM) was -0.43 ± 0.69% and the LDH release cytotoxicity (0.3162278 µM) was -1.34 ± 0.2%. For the same molecule, the LDH release cytotoxicity (1 µM) was -1.31 ± 0.45%, the LDH release cytotoxicity (3.16228 µM) was -0.091 ± 0.79% and the LDH release cytotoxicity (10 µM) was -0.203 ± 0.97%. It also gave an LDH release cytotoxicity (31.6228 µM) of 0.166 ± 0.85% and an LDH release cytotoxicity (100 µM) of -0.385 ± 0.52%.

Work on `O=C(NC(=O)c1c(F)cccc1F)Nc1cc(Cl)c(OC(F)(F)C(F)F)c(Cl)c1` [Hexaflumuron] yielded an LDH release cytotoxicity (0.03162 µM) of -0.197 ± 0.083%, an LDH release cytotoxicity (0.1 µM) of -1 ± 0.078% and an LDH release cytotoxicity (0.3162278 µM) of -1.85 ± 0.34%. It also gave an LDH release cytotoxicity (1 µM) of -1.29 ± 1.2%, an LDH release cytotoxicity (3.16228 µM) of -1.24 ± 0.28% and an LDH release cytotoxicity (10 µM) of -0.349 ± 0.16%. For the same molecule, the LDH release cytotoxicity (31.6228 µM) was -0.129 ± 0.31% and the LDH release cytotoxicity (100 µM) was 4.86 ± 1.1%.

Work on `O=C(OCCCCCCOC(=O)c1ccccc1)c1ccccc1` [Hexane-1,6-diyl dibenzoate] yielded an LDH release cytotoxicity (0.03162 µM) of -2.1 ± 1%, an LDH release cytotoxicity (0.1 µM) of -1.87 ± 0.28% and an LDH release cytotoxicity (0.3162278 µM) of -2.22 ± 0.23%. The LDH release cytotoxicity (1 µM) was -2.77 ± 1.1%, the LDH release cytotoxicity (3.16228 µM) was -2.28 ± 0.66% and the LDH release cytotoxicity (10 µM) was -1.66 ± 0.29%. For the same molecule, the LDH release cytotoxicity (31.6228 µM) was -1.98 ± 0.81% and the LDH release cytotoxicity (100 µM) was -0.594 ± 0.66%.

With `N#CCCCCC#N` [Hexanedinitrile] the LDH release cytotoxicity (0.03162 µM) was -0.442 ± 0.26%, the LDH release cytotoxicity (0.1 µM) was -0.226 ± 0.15% and the LDH release cytotoxicity (0.3162278 µM) was 0.0594 ± 0.38%. It also gave an LDH release cytotoxicity (1 µM) of -1 ± 1%, an LDH release cytotoxicity (3.16228 µM) of -0.445 ± 0.31% and an LDH release cytotoxicity (10 µM) of -0.461 ± 0.08%. It also gave an LDH release cytotoxicity (31.6228 µM) of -0.494 ± 0.13% and an LDH release cytotoxicity (100 µM) of 0.294 ± 0.37%.

Work on `CC(C)CCCCCCOC(=O)CCCCC(=O)OCCCCCCC(C)C` [Hexanedioic acid, diisononyl ester] yielded an LDH release cytotoxicity (0.03162 µM) of -1.22 ± 0.85%, an LDH release cytotoxicity (0.1 µM) of -0.123 ± 0.24% and an LDH release cytotoxicity (0.3162278 µM) of 0.647 ± 0.098%. For the same molecule, the LDH release cytotoxicity (1 µM) was -0.997 ± 1.1%, the LDH release cytotoxicity (3.16228 µM) was 0.19 ± 0.33% and the LDH release cytotoxicity (10 µM) was 0.0398 ± 0.088%. For the same molecule, the LDH release cytotoxicity (31.6228 µM) was 0.663 ± 0.4% and the LDH release cytotoxicity (100 µM) was 0.377 ± 0.98%.

`O=C(O)CCCCC(=O)O` [Hexanedioic acid] was tested, and the LDH release cytotoxicity (0.03162 µM) was -0.567 ± 0.22%, the LDH release cytotoxicity (0.1 µM) was -0.838 ± 0.079% and the LDH release cytotoxicity (0.3162278 µM) was -1.43 ± 1.4%. It also gave an LDH release cytotoxicity (1 µM) of -1.17 ± 0.34%, an LDH release cytotoxicity (3.16228 µM) of -1.55 ± 0.028% and an LDH release cytotoxicity (10 µM) of -0.895 ± 0.82%. It also gave an LDH release cytotoxicity (31.6228 µM) of -1.25 ± 0.29% and an LDH release cytotoxicity (100 µM) of 0.446 ± 0.27%.

With `CCCCCC(=O)O` [Hexanoic acid] the LDH release cytotoxicity (0.03162 µM) was -2.52 ± 0.086%, the LDH release cytotoxicity (0.1 µM) was -1.97 ± 0.41% and the LDH release cytotoxicity (0.3162278 µM) was -0.0407 ± 0.14%. For the same molecule, the LDH release cytotoxicity (1 µM) was -1.44 ± 0.26%, the LDH release cytotoxicity (3.16228 µM) was -1.32 ± 0.1% and the LDH release cytotoxicity (10 µM) was -1.49 ± 1.2%. The LDH release cytotoxicity (31.6228 µM) was -0.358 ± 0.055% and the LDH release cytotoxicity (100 µM) was 0.23 ± 0.78%.

For `CN(C)c1nc(=O)n(C2CCCCC2)c(=O)n1C` [Hexazinone], the LDH release cytotoxicity (0.03162 µM) was -1.77 ± 0.1%, the LDH release cytotoxicity (0.1 µM) was -1.77 ± 0.46% and the LDH release cytotoxicity (0.3162278 µM) was 0.416 ± 1.9%. The LDH release cytotoxicity (1 µM) was -2.14 ± 0.28%, the LDH release cytotoxicity (3.16228 µM) was -0.406 ± 1.8% and the LDH release cytotoxicity (10 µM) was -0.642 ± 0.23%. The LDH release cytotoxicity (31.6228 µM) was -1.37 ± 0.81% and the LDH release cytotoxicity (100 µM) was 0.813 ± 0.03%.

With `CC1C(c2ccc(Cl)cc2)SC(=O)N1C(=O)NC1CCCCC1` (configuration not stated) [Hexythiazox] the LDH release cytotoxicity (0.03162 µM) was -0.985 ± 0.63%, the LDH release cytotoxicity (0.1 µM) was -2.1 ± 0.29% and the LDH release cytotoxicity (0.3162278 µM) was -1.93 ± 0.23%. The LDH release cytotoxicity (1 µM) was -1.79 ± 0.32%, the LDH release cytotoxicity (3.16228 µM) was -1.86 ± 0.39% and the LDH release cytotoxicity (10 µM) was -2.05 ± 0.75%. For the same molecule, the LDH release cytotoxicity (31.6228 µM) was 1.36 ± 1.8% and the LDH release cytotoxicity (100 µM) was 6.86 ± 1.2%.
